Results taken from patent US9249148B2, “Tris(hetero)arylpyrazoles and use thereof” (AICURIS GMBH & CO. KG, priority 2012, dated 2016).

Experiments:
Type in all cases: cell-based
HIV-1LAI wildtype = test: alamarBlue Viability Assay with HIV-1LAI-infected MT4 cells; settings: Human immunodeficiency virus 1, 10% FBS
Method: For starting a 96-well MTP, 3 million PBLs are pelleted, suspended in 1 ml RPMI 1640 medium/10% FBS/2 mM L-glutamine/1% Pen/Strep and incubated for 2 hours at 37° C. with a suitable quantity of the relevant HIV-1LAI (NIH AIDS Research & Reference Reagent Program, Germantown, USA) (pellet infection). Non-adsorbed viruses are then washed out, and the infected cells pelleted again and suspended in 18 ml RPMI 1640 medium/10% FBS/2 mM L-glutamine/1% Pen/Strep/Interleukin-2 (40 U/ml). From this, 180 μl per well is pipetted into a 96-well MTP to 20 μl of test substance at a suitable level of dilution. Alternatively, the HIV is added after preparation of the substance dilutes in the MTP together with the cells, and is not washed out (supernatant infection). In order to avoid edge effects, the edge wells of the MTP are not used for substance dilutions. The second vertical row of the MTP contains only infected cells (virus control) and the eleventh vertical row only non-infected cells (cell control), each in RPMI 1640 medium/10% FBS/2 mM L-glutamine/1% Pen/Strep/Interleukin-2 (40 U/ml). The remaining wells of the MTP contain the compounds in accordance with the invention in various concentrations, starting from the third vertical row, from which the test substances are diluted in 3-step sequences up to the tenth vertical row by a factor of 3^7. The test substances are dissolved in DMSO; the final DMSO concentration in the test preparation is 1%. The test samples are incubated for 5 days at 37° C./5% CO2. After 5 to 7 days, 50 μl of cell-free supernatant is removed from each well to determine its p24 content using p24 ELISA (HIV-1 p24CA Antigen Capture Assay Kit, NCI-Frederick Cancer Research and Development Center, Frederick, USA). From the resulting values of the photometric analysis (450/620 nm), the EC50 values of the test substances are determined from the resulting dose-response curves using the Prism4 software (GraphPad, San Diego, Calif.) as the concentration of treated infected cells, where the p24 quantity is 50% of the untreated infected cells.
Alternatively, MT4 cells are used in place of PBLs for testing the test substances. HIV-1LAI-infected MT4 cells (MOI 0.01, supernatant infection) are incubated in accordance with the procedure described above in RPMI 1640 medium using 2% or 10% FKS/2 mM L-glutamine/1% Pen/Strep in the presence of the test substances for 5 days at 37° C./5% CO2 (10 μl diluted substance and 90 μl cells/virus per well). 10 μl alamarBlue (Invitrogen, Karlsruhe, Germany) is then added per well and the MTPs are incubated for 3 hours at 37° C. before fluorimetric evaluation is performed (544/590 nm). Using quattroWorkflow software (Quattroresearch, Martinsried, Germany), the EC50 values of the test substances are determined from the resulting dose-response curves as the concentration of treated infected cells in which the fluorescence is 50% of that of the untreated, non-infected cells.

HIV-1NL4-3 K103N-Y181C = test: Luminescence Reduction Assay, luciferase reporter virus with resistance mutations in MT4 cells; settings: Human immunodeficiency virus 1, MT4, read-out: EC50 (μM) MT4 cells HIV-1NL4-3 K103N-Y181C 2% FBS
From the text: (§1) For this assay, HIV-1NL4-3 reporter viruses are used which carry the luciferase164 gene (lu164) in place of the nef gene. The viruses are generated by transfection of 293T cells with the corresponding proviral pNL4-3 plasmid (Lipofectamine Reagent, Invitrogen, Karlsruhe, Germany). Starting from the proviral plasmid DNA, viruses with defined resistance mutations (single or combined) are produced in the reverse transcriptase gene using the “QuikChange II XL Site-Directed Mutagenesis Kit” (Stratagene, Cedar Creek, Tex., USA). Resistance mutations include, among others: L74V, A98G, A98S, L100I, K101E, K103N, V106A, V106I, V106M, V108I, V108A, E138K, V179I, V179D, V179E, Y181C, Y181I, Y188L, G190A, G1905, H221Y, P225H, F227C, F227L, F227V, M230I, M230L, L234I, P236L, N348I, T369A, T369I, T369V. MT4 cells infected with these reporter viruses (NIH AIDS Research and Reference Reagent Program) secrete luciferase into the medium, which enables the luminometric quantification of the virus replication.
(§2) For starting a 96-well MTP, 3 million MT4 cells are pelleted, suspended in 1 ml RPMI 1640 medium without phenol red (Invitrogen, Karlsruhe, Germany)/10% FBS/2 mM L-glutamine/1% Pen/Strep (Invitrogen, Karlsruhe, Germany), and incubated for 2 hours at 37° C. with a suitable quantity of the relevant HIV-1NL4-3 reporter virus (pellet infection). Non-adsorbed viruses are then washed out, and the infected cells are pelleted again and suspended in 8 ml RPMI 1640 medium without phenol red/2% or 10% FBS/2 mM L-glutamine/1% Pen/Strep. From this, 90 μl per well is pipetted into a white 96-well MTP to 10 μl of test substance at a suitable level of dilution. In order to avoid edge effects, the edge wells of the MTP are not used for substance dilutions. The second vertical row of the MTP contains only infected cells (virus control) and the eleventh vertical row only non-infected cells (cell control), each in RPMI 1640 medium without phenol red/2% or 10% FBS/2 mM L-glutamine/1% Pen/Strep. The remaining wells of the MTP contain the compounds in accordance with the invention in various concentrations, starting from the third vertical row, from which the test substances are diluted in 3-step sequences up to the tenth vertical row by a factor of 3^7. The test substances are dissolved in DMSO; the final DMSO concentration in the test formulation is 1%.

HIV-1NL4-3 wildtype = test: Luminescence Reduction Assay, luciferase reporter virus in MT4 cells; settings: Human immunodeficiency virus 1, MT4, read-out: EC50 (μM) MT4 cells HIV-1NL4-3 wildtype 2% FBS
From the text: as §1, §2

| SMILES | EC50 (HIV-1LAI wildtype) [µM] | EC50 (HIV-1NL4-3 K103N-Y181C) [µM] | EC50 (HIV-1NL4-3 wildtype) [µM] |
| --- | --- | --- | --- |
| O=C1NCc2c1ccnc2-c1cc(-c2cc(F)cc(Cl)c2)n(-c2ccc(F)c(Cl)c2)n1 [Example 1, 4-[1-(3-chloro-4-fluorophenyl)-5-(3-chloro-5-fluorophenyl)-1H-pyrazole-3-yl]-2,3-dihydro-1H-pyrrolo[3,4-c]pyridine-1-one] | 0.0097 | 0.004 | 0.0015 |
| O=C1NCc2c1ccnc2-c1cc(-c2cc(F)cc(Cl)c2)n(-c2cccnc2)n1 [Example 2, 4-[5-(3-chloro-5-fluorophenyl)-1-(pyridine-3-yl)-1H-pyrazole-3-yl]-2,3-dihydro-1H-pyrrolo[3,4-c]pyridine-1-one] | 0.0063 | 0.0132 | 0.0013 |
| O=C1NCc2c1cccc2-c1cc(-c2cc(F)cc(Cl)c2)n(-c2ccc(F)c(Cl)c2)n1 [Example 3, 4-[1-(3-chloro-4-fluorophenyl)-5-(3-chloro-5-fluorophenyl)-1H-pyrazole-3-yl]-2,3-dihydro-1H-isoindole-1-one] | 0.0586 | 0.0289 | 0.006 |
| O=C1NCc2c1cccc2-c1cc(-c2cc(F)cc(Cl)c2)n(-c2cccnc2)n1 [Example 4, 4-[5-(3-chloro-5-fluorophenyl)-1-(pyridine-3-yl)-1H-pyrazole-3-yl]-2,3-dihydro-1H-isoindole-1-one] | 0.0155 | 0.042 | 0.0055 |
| O=C1NCc2c1ccnc2-c1cc(-c2cc(F)cc(OC(F)(F)F)c2)n(-c2ccc(F)c(Cl)c2)n1 [Example 5, 4-{1-(3-chloro-4-fluorophenyl)-5-[3-fluoro-5-(trifluoromethoxy)phenyl]-1H-pyrazole-3-yl}-2,3-dihydro-1H-pyrrolo[3,4-c]pyridine-1-one] | 0.15 | 0.0117 | 0.011 |
| O=C1NCc2c1ccnc2-c1cc(-c2cc(F)cc(OC(F)(F)F)c2)n(-c2cccnc2)n1 [Example 6, 4-{5-[3-fluoro-5-(trifluoromethoxy)phenyl]-1-(pyridine-3-yl)-1H-pyrazole-3-yl}-2,3-dihydro-1H-pyrrolo[3,4-c]pyridine-1-one] | 0.0137 | 0.0083 | 0.0024 |
| O=C1NCc2c1cccc2-c1cc(-c2cc(F)cc(OC(F)(F)F)c2)n(-c2cccnc2)n1 [Example 7, 4-{5-[3-fluoro-5-(trifluoromethoxy)phenyl]-1-(pyridine-3-yl)-1H-pyrazole-3-yl}-2,3-dihydro-1H-isoindole-1-one] | 0.0512 | 0.0206 | 0.0107 |
| O=C1NC(=O)c2c1cccc2-c1cc(-c2cc(F)cc(OC(F)(F)F)c2)n(-c2cccnc2)n1 [Example 8, 4-{5-[3-fluoro-5-(trifluoromethoxy)phenyl]-1-(pyridine-3-yl)-1H-pyrazole-3-yl}-1H-isoindole-1,3(2H)-dione] | > 3.3 | > 3.3 | 0.643 |
| O=C1NCc2c1ccnc2-c1cc(-c2cc(Cl)cc(OC(F)(F)F)c2)n(-c2ccc(F)c(Cl)c2)n1 [Example 9, 4-{1-(3-chloro-4-fluorophenyl)-5-[3-chloro-5-(trifluoromethoxy)phenyl]-1H-pyrazole-3-yl}-2,3-dihydro-1H-pyrrolo[3,4-c]pyridine-1-one] | 0.0768 | 0.0176 | 0.0128 |
| O=C1NCc2c1ccnc2-c1cc(-c2cc(Cl)cc(OC(F)(F)F)c2)n(-c2cccnc2)n1 [Example 10, 4-{5-[3-chloro-5-(trifluoromethoxy)phenyl]-1-(pyridine-3-yl)-1H-pyrazole-3-yl}-2,3-dihydro-1H-pyrrolo[3,4-c]pyridine-1-one] | 0.008 | 0.0027 | 0.0012 |
| O=C1NCc2c1cccc2-c1cc(-c2cc(Cl)cc(OC(F)(F)F)c2)n(-c2cccnc2)n1 [Example 11, 4-{5-[3-chloro-5-(trifluoromethoxy)phenyl]-1-(pyridine-3-yl)-1H-pyrazole-3-yl}-2,3-dihydro-1H-isoindole-1-one] | 0.0663 | 0.024 | 0.0091 |
| O=C1NCc2c1ccnc2-c1cc(-c2cc(Br)cc(OC(F)(F)F)c2)n(-c2ccc(F)c(Cl)c2)n1 [Example 12, 4-{5-[3-bromo-5-(trifluoromethoxy)phenyl]-1-(3-chloro-4-fluorophenyl)-1H-pyrazole-3-yl}-2,3-dihydro-1H-pyrrolo[3,4-c]pyridine-1-one] | 0.0974 | 0.012 | 0.0089 |
| O=C1NCc2c1ccnc2-c1cc(-c2cc(Br)cc(OC(F)(F)F)c2)n(-c2cccnc2)n1 [Example 13, 4-{5-[3-bromo-5-(trifluoromethoxy)phenyl]-1-(pyridine-3-yl)-1H-pyrazole-3-yl}-2,3-dihydro-1H-pyrrolo[3,4-c]pyridine-1-one] | 0.0086 | 0.0025 | 0.0011 |
| O=C1NCc2c1ccnc2-c1cc(-c2cc(F)cc(OC(F)F)c2)n(-c2cccnc2)n1 [Example 14, 4-{5-[3-(difluoromethoxy)-5-fluorophenyl]-1-(pyridine-3-yl)-1H-pyrazole-3-yl}-2,3-dihydro-1H-pyrrolo[3,4-c]pyridine-1-one] | 0.0053 | 0.0097 | 0.001 |
| O=C1NCc2c1ccnc2-c1cc(-c2cc(F)cc(OC(F)F)c2)n(-c2ccc(F)c(Cl)c2)n1 [Example 15, 4-{1-(3-chloro-4-fluorophenyl)-5-[3-(difluoromethoxy)-5-fluorophenyl]-1H-pyrazole-3-yl}-2,3-dihydro-1H-pyrrolo[3,4-c]pyridine-1-one] | 0.0171 | 0.0085 | 0.0044 |
| O=C1NCc2c1ccnc2-c1cc(-c2cc(Cl)cc(OC(F)F)c2)n(-c2cccnc2)n1 [Example 16, 4-{5-[3-chloro-5-(difluoromethoxy)phenyl]-1-(pyridine-3-yl)-1H-pyrazole-3-yl}-2,3-dihydro-1H-pyrrolo[3,4-c]pyridine-1-one] | 0.0023 | 0.0026 | 0.0005 |
| O=C1NCc2c1ccnc2-c1cc(-c2cc(Cl)cc(OC(F)F)c2)n(-c2ccnc(Cl)c2)n1 [Example 17, 4-{5-[3-chloro-5-(difluoromethoxy)phenyl]-1-(2-chloropyridine-4-yl)-1H-pyrazole-3-yl}-2,3-dihydro-1H-pyrrolo[3,4-c]pyridine-1-one] | 0.0086 | 0.0049 | 0.0011 |
